In US20230076803A1, “COMPOUND AND DRUG CONJUGATE, AND PREPARATION METHOD AND USE THEREOF” (priority 2019, published 2023):
Like-named read-outs stand apart in the source and are kept apart here.

Columns and labels:
HBV mRNA [1] = assay: Inhibition of HBV mRNA expression in liver of 44Bri mice, day 14 (Exp. Ex. 2-4); type: in vivo, HBV transgenic mice C57BL/6J-Tg(Alb1HBV)44Bri/J; conditions: 1 mg/kg subcutaneous single dose, day 14 after administration
Description: (§1) HBV transgenic mice C57BL/6J-Tg(Alb1HBV)44Bri/J: purchased from Department of Laboratory Animal Science, Peking University Health Science Center. Mice with S/COV >10 were selected before the experiment. Hereinafter, the transgenic mice were sometimes abbreviated as 44Bri model mice;
In this experimental example, the inhibitory efficiency of Conjugate 32 on the expression level of HBV mRNA in HBV-transgenic mice C57BL/6J-Tg (A 1b1HBV) 44Bri/J was investigated.
The HBV transgenic mice C57BL/6J-Tg (Alb1HBV) 44Bri/J used in this experimental example were purchased from the Department of Laboratory Animal Science, Peking University Health Science Center. […]
For each mouse, 1 μg of total RNA was taken, and the extracted total RNA was reverse-transcribed into cDNA using ImProm-II™ reverse transcription kit (Promega Crop.) according to the instructions thereof to obtain a solution containing cDNA, and then the expression level of HBV mRNA in liver tissue was determined by the fluorescent quantitative PCR kit (Beijing Cowin Biosciences Co., Ltd.). In this fluorescent quantitative PCR method, R-actin gene was used as an internal control gene, and HBV and 3-actin were detected by using primers for HBV and β-actin, respectively. […]

HBV mRNA [2] = assay: Inhibition of HBV mRNA expression in liver of 44Bri mice, day 7 (Exp. Ex. 2-6); type: in vivo, HBV transgenic mice C57BL/6J-Tg(Alb1HBV)44Bri/J; conditions: 1 mg/kg subcutaneous, day 7 after administration
Description: as §1
In this experimental example, the inhibitory efficiency of different concentrations of Conjugate 32 on the expression level of HBV mRNA in HBV transgenic mice C57BL/6J-Tg (Alb1HBV) 44Bri/J was investigated. […]
The expression level of HBV mRNA in the liver tissue of each mouse was determined by real-time fluorescent quantitative PCR. Specifically, the total RNA extracted from the liver tissue of each mouse was reverse-transcribed into cDNA using ImProm-II™ reverse transcription kit (Promega) according to the instructions thereof, and then the expression level of HBV mRNA in liver tissue was determined by the fluorescent quantitative PCR kit (Beijing Cowin Biosciences Co., Ltd.) and the inhibitory efficiency was calculated. In this fluorescent quantitative PCR method, GAPDH gene was used as an internal control gene, and the HBV and GAPDH were detected by using the primers for HBV and GAPDH, respectively. […]

HBV DNA = assay: Time course of serum HBV DNA in AAV-HBV low concentration model mice (Exp. Ex. 2-7); type: in vivo; conditions: 3 mg/kg subcutaneous single dose
Description: (§2) The AAV-HBV low concentration model mice were used.
Normalized expression level of HBV DNA=(HBV DNA content after administration/HBV DNA content before administration)×100%.

HBV mRNA [3] = assay: Inhibition of HBV mRNA on day 70 (Exp. Ex. 2-7, FIG. 9); type: in vivo, AAV-HBV low concentration model mice; conditions: 1 mg/kg or 3 mg/kg, day 70 after administration
Protocol: as §2
In a further experiment, the inhibitory effect on HBV mRNA on day 70 was tested according to the detection method of Example 6 above, and the results are shown in FIG. 9.

[4] = 90% cynomolgus monkey plasma, 37° C., period of up to 72 hours
Protocol: Therein, 0 hour is the time when 10 μL of the mixed solution was taken immediately after the conjugate solution was mixed well with 90% cynomolgus monkey plasma. After sampling at each time point, each mixed solution was diluted 5-fold with 1×PBS (pH7.4), and 10 μL of each diluted mixed solution was taken for electrophoresis.
20 wt % of non-denatured polyacrylamide gel was prepared. The samples for electrophoresis in each group of the above diluted samples were mixed with 4 μL of loading buffer (20 mM EDTA, 36 wt % glycerol, and 0.06 wt % aqueous solution of bromophenol blue) and loaded into each gel well for electrophoresis under 80 mA constant current for 60 minutes. After electrophoresis, the gel was stained with 1×Sybr Gold dye (Invitrogen, Cat. 11494) for 15 minutes and imaged.

[5] = SD rats, subcutaneous single dose 0.5 mg/kg and 1 mg/kg
Protocol: In this Experimental Example, the rats in each experimental group (10 rats in each group, half male and half female) were administered with Conjugate 32 by subcutaneous injection respectively at a single dose of 1 mg/kg and 0.5 mg/kg of rat body weight. The plasma drug concentration and liver tissue drug concentration in rats at each time point were then measured.
First, SD rats were randomly divided into groups according to the body weight and gender of the rat using the [sequence] version 7.2.0 data system, and then the conjugates were administered at the designed doses, respectively. All animals were dosed based on body weight and subcutaneously administered at a single doses of 1 and 0.5 mg/kg (provided in the form of 0.1 mg/mL and 0.05 mg/mL in 0.9% aqueous sodium chloride solution, with a volume of 10 mL/kg). The rat's whole blood was collected from the jugular vein before administration and 5 minutes (±30 seconds), 30 minutes (±1 minute), 1 hour (±2 minutes), 2 hours (±2 minutes), 6 hours (±5 minutes), 24 hours (±10 minutes), 48 hours (±20 minutes), 72 hours (±20 minutes), 120 hours (±30 minutes), and 168 hours (±30 minutes) after administration. […]
The concentration of Conjugate 32 in rat plasma and liver tissue was quantitatively determined by HPLC-FLD (High Performance Liquid Fluorescence Chromatography) according to the following steps: […]

HBsAg [6] = conditions: M-Tg HBV mice, 3 mg/kg subcutaneous single dose, period of up to 70 days
Protocol: HBV transgenic mice: named as M-Tg HBV, purchased from the Animal Department of Shanghai Public Health Center. […] Hereinafter, the transgenic mice were sometimes abbreviated as M-Tg model mice;
M-Tg HBV mice (purchased from the Animal Department of Shanghai Public Health Center) were used. […] The AAV virus used is rAAV8-1.3HBV, type D (ayw) virus, purchased from Beijing FivePlus Molecular Medicine Institute Co. Ltd., 1×10^12 viral genome (v.g.)/mL, Lot No. 2016123011. The AAV virus was diluted to 5×10^11 v.g./mL with sterilized PBS prior to the experiment. Each mouse was injected with 200 μL (that is, each mouse was injected with 1×10^11 v.g). […] Each conjugate was administered in the form of 0.2 mg/mL or 0.6 mg/mL (both calculated based on siRNA) in 0.9% aqueous sodium chloride solution, with an administration volume of 5 mL/kg mouse body weight; that is, the administration doses of each conjugate (calculated based on siRNA) were 1 mg/kg and 3 mg/kg. […] The blood was collected from mouse orbital venous plexus before administration and on day 7, 14, 21, 28, 35, 42, 49, 63, and 70 days after administration, and the serum HBsAg level was determined at each time point. […]
The inhibition rate against HBsAg is calculated according to the following equation:
wherein HBsAg content is expressed as the equivalents (UI) of HBsAg per millilitre (mL) of serum.

HBsAg [7] = conditions: AAV-HBV low concentration model mice, 3 mg/kg subcutaneous single dose
Protocol: The AAV-HBV low concentration model mice were used. After the animal models were successfully established, they were randomly divided into groups according to serum HBsAg content (five mice per group). […] The blank group was administered with only 5 mL/kg 1×PBS. Blood was collected from mouse orbital venous plexus before administration and on day 14, 28, 42, 56, 70, 84, 98, 112, 126, 140, 154, 168, 182, and 196 days after administration, and the serum HBsAg level was determined at each time point.
About 100 μL orbital blood was taken each time, and no less than 20 NL serum was collected after centrifugation. The HBsAg content in serum was determined by using HBsAg CLIA kit (Autobio, CL0310) according to the instructions provided by the manufacturer.
Normalized expression level of HBsAg=(HBsAg content after administration/HBsAg content before administration)×100%.

## Conjugate 32: siRNA conjugate, S SEQ ID NO 367, AS SEQ ID NO 368, Table 2A; conjugated via Compound N-62 (sense CCUUGAGGCAUACUUCAAA; antisense UUUGAAGUAUGCCUCAAGGUU; conjugated via Compound N-62, position not given here)
HBV mRNA [1]
  inhibition rate against HBV mRNA in liver tissue: up to 89.86%
HBV mRNA [2]
  inhibition rate against HBV mRNA in liver tissue: up to 91.96%
HBV DNA
  inhibition rate against HBV DNA in serum: up to 85.7%
HBV mRNA [3]
  inhibitory effect on HBV mRNA on day 70: can still inhibit the expression level of HBV mRNA to a certain extent
[4]
  stability in cynomolgus monkey plasma in vitro (semiquantitative): remain undegraded
[5]
  concentration in rat plasma over time: rapidly decreased to below detection limit within a few hours
  time for which the concentration in liver tissue maintained a higher and stable level: at least 150 hours
HBsAg [6]
  inhibition rate against serum HBsAg: up to 97.80%
HBsAg [7]
  inhibition rate against serum HBsAg: up to 90.9%
